In US20250127751A1, “Traditional Chinese Medicine Compound Preparation for Tumors and Application thereof” (priority 2023, published 2025):
Where “and” joins values, the source holds several entries; their conditions need not be identical. Equal values may be shown once. Read-outs that look alike come from different tables or passages of the source.

Key:
Assay type in all cases: cell-based, human
NB4 cells [1] = settings: single compound 30 μM; dosed 10 d
Experimental: When normal neutrophils or differentiated cells are stimulated, the production of intracellular superoxide anions increases. NBT receives hydrogen from NADPH in the differentiated cells and reduces into insoluble blue black or blue purple particles—formazane particles.
NB4 cells at the logarithmic growth phase were seeded at a density of 2×10^5 cells/well into a 6-well plate, and dosed 24 h later. […] 24 h after the last dose, the culture medium was discarded, and the cells were washed twice with PBS. 500 μL of a 0.1% NBT solution (purchased from Sigma and prepared from PBS) containing 1 μg/ml of phorbol ester (PMA, purchased from Sigma) was added to each well, and the cells were incubated at 37° C. for 30 min, washed twice with PBS, and observed under a microscope. In a 400× magnification field, 200 cells were randomly counted from each specimen. Cells containing gray or black formazane particles in the cytoplasm were counted as NBT reduction positive cells, and the percentage of the reduction positive cells was calculated. The experiment was repeated three times.

NB4 cells [2] = settings: 10 d; doses of Table 2 (alone 30 μM, pairs 15 μM each, DCI 10 μM each)
Experimental: NB4 cells at the logarithmic growth phase were seeded at a density of 2×10^5 cells/well into a 6-well plate, and dosed 24 h later. […] NB4 cells cultured for 10 d were centrifuged at 110 g for 3 min, smeared, fixed with methanol, and air dried naturally. Then, the cell smear was stained with Wright's-Giemsa for morphological observation. The experiment was repeated three times.

CD33 = system: CD33
Experimental: (§1) In an immunological marker examination of APL cells, CD11b is negative and CD33 is positive. The surface antigen CD33 is associated with the degree of cellular immaturity, while the surface antigen CD11b is associated with the degree of cellular maturity, High expression of CD11b, as an adhesion molecule on the cell surface, may be a marker of cell differentiation maturation.
(§2) NB4 cells at the logarithmic growth phase were seeded at a density of 2×10^5 cells/well into a 6-well plate, and dosed 24 h later. […] 24 h after the last dosing, cells were collected, centrifuged to remove the culture medium, washed twice with precooled PBS, and resuspended in 100 μL PBS. APC (allophycocyanin) and BB515 labeled CD11b and CD33 monoclonal antibodies and corresponding isotype antibodies (both purchased from BD, USA) were added respectively. Following mixing, the cells were incubated at 4° C. for 30 min, filtered through a cell filter membrane, and then detected.

CD11b = system: CD11b
Experimental: as §1, §2

NB4 cells [3] = settings: 24 h
Experimental: The ANNEXIN V-FITC/PI double-staining method is established based on a principle of asymmetric loss of cell membrane in apoptotic cells, that is, externalization of phosphatidylserine. Determination of results: normal live cells: annexin V^−PI^−; apoptotic cells: annexin V^+PI^−, and necrotic or late apoptotic cells: annexin V^+PI^+.
NB4 cells at the logarithmic growth phase were seeded at a density of 1×10^5 cells/well into a 6-well plate, and dosed 24 h later. The proapoptotic effect of each group was detected according to the dosing methods in Table 1. The cells were collected 24 h after drug dosing and detected on a flow cytometer according to the operating procedure of an ANNEXIN V-FITC/PI apoptosis detection kit (purchased from Solarbio). The experiment was repeated three times.

[4] = single compound 30 μM, dosed 10 d

SMILES | NBT reduction positive rate in NB4 cells (%) (NB4 cells [1]) | Morphology of NB4 cells (NB4 cells [2]) | Positive rate of CD33 expression in NB4 cells (%) (CD33; [4]) | Positive rate of CD11b expression in NB4 cells (%) (CD11b; [4]) | Apoptosis rate of NB4 cells (%) (NB4 cells [3]; single compound 20 μM) | Apoptosis rate of NB4 cells (%) (NB4 cells [3]; single compound 40 μM) | Positive rate of CD33 expression in NB4 cells (%) (CD33) | Positive rate of CD11b expression in NB4 cells (%) (CD11b)
Nc1ncnc2c1ncn2[C@@H]1O[C@H](CO)C[C@H]1O [CDY, Cordycepin] | 3.19% and 3.19 ± 2.09% | no significant differences from the control group | 37.14 ± 15.90% | 1.79 ± 1.42% | 10.70 ± 3.54% | 19.39 ± 5.64% |  | 
O=C1Nc2ccccc2/C1=C1/Nc2ccccc2C1=O [IDB, Indirubin] | 15.20% and 15.20 ± 4.10 % |  |  |  | 28.88 ± 11.51% | 31.38 ± 8.92 % | 27.50 ± 16.67 % | 26.42 ± 10.91 %
